For two compounds, ED50 and bioavailability results are on record in ChEMBL document CHEMBL1133560, “Design and synthesis of new orally active nonpeptidic inhibitors of human neutrophil elastase” (J Med Chem, 2000).

Each structure is given as a SMILES string.

Data set [1] can be described thus: (§1) Effective dose determined in an animal model which lasted for more than 8 h. Format: ADME.
The nature of data set [2]: Percent oral bioavailability evaluated in monkey. Format: ADME, organism-based. To be noted: cercopithecidae, in vivo.
The nature of data set [3]: Percent oral bioavailability evaluated in rat. Format: ADME, organism-based. As to conditions: in vivo.
The nature of data set [4]: as §1. Format: functional.
Data set [5] can be described thus: Percent oral bioavailability evaluated in dog. Format: ADME, organism-based, Canis lupus familiaris. As to conditions: in vivo.

Take `CC(C)C(NC(=O)Cn1c(-c2ccc(F)cc2)ncc(N)c1=O)C(=O)C(F)(F)F` (stereo not given): the ED50 in data set [1] came out at 7.5 mg/kg.
Take `CC(C)C(NC(=O)Cn1c(-c2ccccc2)ncc(N)c1=O)C(=O)c1nnc(C(C)(C)C)o1` (stereo not given): the bioavailability in data set [2] worked out at 18%; in data set [3], 51%; in data set [5], 31%. In data set [4], the median effective dose (ED50) came out at 1.4 mg/kg.
